pEC50: −log10 of the molar value.
The molecules below were run against T1, human Farnesoid X Receptor (FXR) ligand binding domain (GST-FXR LBD) (Homo sapiens, UniProt Q96RI1) (assay: Human GST-FXR LBD co-activator interaction assay (FXR HTRF assay)). Details: ligand-dependent interaction of GST-FXR LBD with biotin-labeled SRC-1 peptide, response relative to GW4064, read-out: FXR coactivator interaction assay (HTRF).
T1 construct: purchased Invitrogen
T1 sequence (Q96RI1 193-472 isoform Q96RI1-2): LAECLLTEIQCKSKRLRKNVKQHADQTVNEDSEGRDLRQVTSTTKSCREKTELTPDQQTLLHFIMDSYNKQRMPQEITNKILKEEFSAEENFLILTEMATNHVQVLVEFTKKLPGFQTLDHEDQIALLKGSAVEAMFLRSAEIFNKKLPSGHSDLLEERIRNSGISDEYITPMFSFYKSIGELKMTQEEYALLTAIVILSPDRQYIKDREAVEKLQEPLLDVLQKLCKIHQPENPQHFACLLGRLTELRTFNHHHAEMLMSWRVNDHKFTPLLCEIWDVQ
Type: biochemical
Description: Human GST-FXR LBD Co-Activator Interaction Assay
The FXR HTRF assay is a biochemical assay measuring the interaction between FXR and a coactivator protein (SRC1). The ligand-induced interaction with a coactivator protein is a critical step in transcriptional activation by FXR. Thus, this is an assay designed to measure FXR agonist activity of the test compounds.
Recombinant human Farnesoid X Receptor (FXR) ligand binding domain (amino acids 193-472) fused to glutathione S-transferase (GST) purified protein (GST-FXR LBD) was purchased (Invitrogen). The ligand-dependent interaction between GST-FXR LBD and a peptide derived from Steroid Receptor Coactivator-1 (SRC-1) was monitored by Fluorescence Resonance Energy Transfer (FRET). […] Test compounds (in DMSO solution) and detection reagents (anti-GST-Cryptate labeled antibody and Streptavidin-XL665 conjugate; CisBio) were added in assay buffer containing 50 mM KF. Plates are incubated at room temperature in the dark for 2.5 hrs before reading on an Envision (PerkinElmer) at 665 nm and 590 nm. The HTRF assay results were calculated from the 665 nm/590 nm ratio (ratio=(A665 nm/A590 nm)×10^4) and expressed in Delta F %=(Ratiosample−Rationegative)/Rationegative×100.
A negative control (without Streptavidin-XL665) was run with each assay and represented the background fluorescence. A reference FXR agonist, (E)-3-(2-chloro-4-((3-(2,6-dichlorophenyl)-5-isopropylisoxazol-4-yl)methoxy)styryl)benzoic acid (Compound GW4064), was included in each experiment as positive control. The efficacy of each test compound was compared to that of GW4064. At each concentration, the relative activity of the test compound was expressed as Response %=(Rsample−RDMSO)/(Rpositive−RDMSO), where Rsample is the HTRF response (expressed in Delta F %) for the test compound, Rpositive is the maximal response for GW4064 at saturating concentrations, and RDMSO is the response for DMSO control. The EC50 values were calculated using GraphPad Prism (GraphPad Software) using non-linear regression curve fit (log(agonist) vs. response—variable slope (four parameters)).

Q: Cn1nc(C(=O)N(CC(=O)NCC2CCOCC2)Cc2ccccc2F)c2c1-c1cc(Cl)ccc1OC2 [Compound 82, 2-(1-{8-chloro-1-methyl-1H,4H-chromeno[4,3-c]pyrazol-3-yl}-N-[(2-fluorophenyl)methyl]formamido)-N-(oxan-4-ylmethyl)acetamide] was tested. Which pEC50 did it give?
A: The pEC50 was 6.75.

Q: With Cn1nc(C(=O)N(CC(=O)NC2CCS(=O)(=O)C2)Cc2ccccc2F)c2c1-c1cc(Cl)ccc1OC2 (stereo not shown) [Compound 39, 8-chloro-N-(2-((1,1-dioxidotetrahydrothiophen-3-yl)amino)-2-oxoethyl)-N-(2-fluorobenzyl)-1-methyl-1,4-dihydrochromeno[4,3-c]pyrazole-3-carboxamide] as the molecule, how does the pEC50 read?
A: Its pEC50 is 6.32.

Q: CC(C)NC(=O)CN(Cc1cc(F)cc(F)c1)C(=O)c1nn(C)c2c1COc1ccc(Cl)cc1-2 [Compound 24, 2-(1-{8-chloro-1-methyl-1H,4H-chromeno[4,3-c]pyrazol-3-yl}-N-[(3,5-difluorophenyl)methyl]formamido)-N-(propan-2-yl)acetamide] was tested. Which pEC50 did it give?
A: The pEC50 was 7.11.

Q: How did the pEC50 turn out when Cn1nc(C(=O)N(CC(=O)NC2CCC(O)CC2)Cc2ccccc2F)c2c1-c1cc(Cl)ccc1OC2 (stereo not shown) [Compound 38, 2-(1-{8-chloro-1-methyl-1H,4H-chromeno[4,3-c]pyrazol-3-yl}-N-[(2-fluorophenyl)methyl]formamido)-N-(4-hydroxycyclohexyl)acetamide] was run?
A: Its pEC50 is 6.14.

Q: With CCNC(=O)CN(Cc1ccccc1F)C(=O)c1nn(C)c2c1COc1ccc(Cl)cc1-2 [Compound 17, 2-(1-{8-chloro-1-methyl-1H,4H-chromeno[4,3-c]pyrazol-3-yl}-N-[(2-fluorophenyl)methyl]formamido)-N-ethylacetamide] as the molecule, how does the pEC50 read?
A: The pEC50 was 7.27.

Q: With Cn1nc(C(=O)N(CC(=O)Nc2ccc(C(=O)N3CCOCC3)cc2)Cc2ccccc2F)c2c1-c1cc(Cl)ccc1OC2 [Compound 20, 2-(1-{8-chloro-1-methyl-1H,4H-chromeno[4,3-c]pyrazol-3-yl}-N-[(2-fluorophenyl)methyl]formamido)-N-[4-(morpholine-4-carbonyl)phenyl]acetamide] as the molecule, how does the pEC50 read?
A: Its pEC50 is 6.61.

Q: CNS(=O)(=O)c1ccc(CN(Cc2ccccc2)C(=O)c2nn(C)c3c2COc2ccc(Cl)cc2-3)cc1 [Compound 54, N-benzyl-8-chloro-1-methyl-N-{[4-(methylsulfamoyl)phenyl]methyl}-1H,4H-chromeno[4,3-c]pyrazole-3-carboxamide] was tested. Which pEC50 did it give?
A: Its pEC50 is 6.58.

Q: How did the pEC50 turn out when CC(C)NC(=O)CN(Cc1cccc(F)c1)C(=O)c1nn(C)c2c1COc1ccc(Br)cc1-2 [Compound 28, 2-(1-{8-bromo-1-methyl-1H,4H-chromeno[4,3-c]pyrazol-3-yl}-N-[(3-fluorophenyl)methyl]formamido)-N-(propan-2-yl)acetamide] was run?
A: Its pEC50 is 7.44.

Q: CC(C)NC(=O)NCCN(Cc1ccccc1F)C(=O)c1nn(C)c2c1COc1ccc(Cl)cc1-2 [Compound 61, 8-chloro-N-[(2-fluorophenyl)methyl]-1-methyl-N-(2-{[(propan-2-yl)carbamoyl]amino}ethyl)-1H,4H-chromeno[4,3-c]pyrazole-3-carboxamide] was tested. Which pEC50 did it give?
A: Its pEC50 is 5.97.

Q: How did the pEC50 turn out when Cn1nc(C(=O)N(CC(=O)NC2CC2(F)F)Cc2ccccc2F)c2c1-c1cc(Cl)ccc1OC2 (stereo not shown) [Compound 23, 2-(1-{8-chloro-1-methyl-1H,4H-chromeno[4,3-c]pyrazol-3-yl}-N-[(2-fluorophenyl)methyl]formamido)-N-(2,2-difluorocyclopropyl)acetamide] was run?
A: The pEC50 was 7.06.

Q: With Cn1nc(C(=O)N(CC(=O)NCC2CC2)Cc2c(F)cccc2F)c2c1-c1cc(Cl)ccc1OC2 [Compound 5, 2-(1-{8-chloro-1-methyl-1H,4H-chromeno[4,3-c]pyrazol-3-yl}-N-[(2,6-difluorophenyl)methyl]formamido)-N-(cyclopropylmethyl)acetamide] as the molecule, how does the pEC50 read?
A: The pEC50 was 7.89.

Q: With Cn1nc(C(=O)N(CC(=O)NCC2CC2)Cc2ccccc2F)c2c1-c1cc(Cl)ccc1OC2 [Compound 3, 2-(1-{8-chloro-1-methyl-1H,4H-chromeno[4,3-c]pyrazol-3-yl}-N-[(2-fluorophenyl)methyl]formamido)-N-(cyclopropylmethyl)acetamide] as the molecule, how does the pEC50 read?
A: Its pEC50 is 9.00.

Q: CC(C)NC(=O)CN(Cc1cc(F)cc(F)c1)C(=O)c1nn(C)c2c1COc1ccc(Br)cc1-2 [Compound 13, 2-(1-{8-bromo-1-methyl-1H,4H-chromeno[4,3-c]pyrazol-3-yl}-N-[(3,5-difluorophenyl)methyl]formamido)-N-(propan-2-yl)acetamide] was tested. Which pEC50 did it give?
A: Its pEC50 is 7.47.

Q: Cn1nc(C(=O)N(CC(=O)NCC2CCCOC2)Cc2ccccc2F)c2c1-c1cc(Cl)ccc1OC2 (stereo not shown) [Compound 32, 2-(1-{8-chloro-1-methyl-1H,4H-chromeno[4,3-c]pyrazol-3-yl}-N-[(2-fluorophenyl)methyl]formamido)-N-(oxan-3-ylmethyl)acetamide] was tested. Which pEC50 did it give?
A: The pEC50 was 6.42.

Q: CC(C)NC(=O)CN(Cc1cccc(F)c1F)C(=O)c1nn(C)c2c1COc1ccc(Cl)cc1-2 [Compound 42, 2-(1-{8-chloro-1-methyl-1H,4H-chromeno[4,3-c]pyrazol-3-yl}-N-[(2,3-difluorophenyl)methyl]formamido)-N-(propan-2-yl)acetamide] was tested. Which pEC50 did it give?
A: The pEC50 was 6.20.

Q: CC(C)NC(=O)CN(Cc1ccccc1F)C(=O)c1nn(C)c2c1COc1ccc(Cl)cc1-2 [Compound 29, 2-(1-{8-chloro-1-methyl-1H,4H-chromeno[4,3-c]pyrazol-3-yl}-N-[(2-fluorophenyl)methyl]formamido)-N-(propan-2-yl)acetamide] was tested. Which pEC50 did it give?
A: Its pEC50 is 6.71.

Q: Cn1nc(C(=O)N(Cc2ccccc2)Cc2ccc(S(C)(=O)=O)cc2)c2c1-c1cc(Cl)ccc1OC2 [Compound 56, N-benzyl-8-chloro-N-[(4-methanesulfonylphenyl)methyl]-1-methyl-1H,4H-chromeno[4,3-c]pyrazole-3-carboxamide] was tested. Which pEC50 did it give?
A: Its pEC50 is 6.22.

Q: Cn1nc(C(=O)N(CCNc2nccs2)Cc2cccc(F)c2)c2c1-c1cc(Cl)ccc1OC2 [Compound 76, 8-chloro-N-[(3-fluorophenyl)methyl]-1-methyl-N-{2-[(1,3-thiazol-2-yl)amino]ethyl}-1H,4H-chromeno[4,3-c]pyrazole-3-carboxamide] was tested. Which pEC50 did it give?
A: Its pEC50 is 6.59.

Q: CC(C)NC(=O)CN(Cc1cc(F)ccc1F)C(=O)c1nn(C)c2c1COc1ccc(Br)cc1-2 [Compound 16, 2-(1-{8-bromo-1-methyl-1H,4H-chromeno[4,3-c]pyrazol-3-yl}-N-[(2,5-difluorophenyl)methyl]formamido)-N-(propan-2-yl)acetamide] was tested. Which pEC50 did it give?
A: Its pEC50 is 7.31.

Q: CC(C)C(=O)NCCN(Cc1ccccc1)C(=O)c1nn(C)c2c1COc1ccc(Cl)cc1-2 [Compound 73, N-[2-(N-benzyl-1-{8-chloro-1-methyl-1H,4H-chromeno[4,3-c]pyrazol-3-yl}formamido)ethyl]-2-methylpropanamide] was tested. Which pEC50 did it give?
A: The pEC50 was 7.30.

Q: Cn1nc(C(=O)N(Cc2ccccc2)Cc2cccc(F)c2)c2c1-c1cc(Cl)ccc1OC2 [Compound 57, N-benzyl-8-chloro-N-[(3-fluorophenyl)methyl]-1-methyl-1H,4H-chromeno[4,3-c]pyrazole-3-carboxamide] was tested. Which pEC50 did it give?
A: Its pEC50 is 6.29.

Q: Cn1nc(C(=O)N(CC(=O)NCC2CC2)Cc2ccccc2F)c2c1-c1cc(F)ccc1OC2 [Compound 65, N-(2-((cyclopropylmethyl)amino)-2-oxoethyl)-8-fluoro-N-(2-fluorobenzyl)-1-methyl-1,4-dihydrochromeno[4,3-c]pyrazole-3-carboxamide] was tested. Which pEC50 did it give?
A: Its pEC50 is 7.92.

Q: CC(C)C(=O)NCCN(Cc1ccccc1F)C(=O)c1nn(C)c2c1COc1ccc(Cl)cc1-2 [Compound 66, N-[2-(1-{8-chloro-1-methyl-1H,4H-chromeno[4,3-c]pyrazol-3-yl}-N-[(2-fluorophenyl)methyl]formamido)ethyl]-2-methylpropanamide] was tested. Which pEC50 did it give?
A: Its pEC50 is 8.00.

Q: CC(C)C(=O)NCCN(Cc1cccc(F)c1)C(=O)c1nn(C)c2c1COc1ccc(Br)cc1-2 [Compound 62, 8-bromo-N-(3-fluorobenzyl)-N-(2-isobutyramidoethyl)-1-methyl-1,4-dihydrochromeno[4,3-c]pyrazole-3-carboxamide] was tested. Which pEC50 did it give?
A: The pEC50 was 7.74.

Q: How did the pEC50 turn out when CC(C)NC(=O)CN(Cc1c(F)cccc1F)C(=O)c1nn(C)c2c1COc1ccc(Cl)cc1-2 [Compound 35, 2-(1-{8-chloro-1-methyl-1H,4H-chromeno[4,3-c]pyrazol-3-yl}-N-[(2,6-difluorophenyl)methyl]formamido)-N-(propan-2-yl)acetamide] was run?
A: Its pEC50 is 6.44.

Reference: patent US10351576B2, “Fused tricyclic pyrazole derivatives useful for farnesoid X receptors” (NOVARTIS AG, priority 2015, dated 2019)
